Data from ChEMBL document CHEMBL1129652, “Substituted 1,2-dihydrophthalazines: potent, selective, and noncompetitive inhibitors of the AMPA receptor” (J Med Chem, 1996).

The compounds below were run against Glutamate receptor ionotropic, AMPA (Rattus norvegicus) (UniProt P19491+P19492+P19493+P19490) (assay: Compound at 10 uM of kainic acid).
Type: functional

| inhibition | SMILES |
| --- | --- |
| 13% | CNC(=O)N1N=C(c2ccc(N)cc2)c2cc3c(cc2C1C)OCO3 (stereo not drawn) |

The compounds below were run against Glutamate receptor ionotropic, AMPA (Rattus norvegicus, UniProt P19490+P19491+P19492+P19493).
Description: Inhibitory activity against AMPA receptor currents in rat cortical cells stimulated with 50 uM kainic acid

| IC50 | SMILES |
| --- | --- |
| 7.2 µM | CCNC(=O)N1N=C(c2ccc(N)cc2)c2cc3c(cc2C1C)OCO3 (stereo not drawn) |
| 5.4 µM | CC1c2cc3c(cc2C(c2ccc(N)cc2)=NN1C(=O)NC(C)(C)C)OCO3 (stereo not drawn) |
| 2.8 µM | CCCNC(=O)N1N=C(c2ccc(N)cc2)c2cc3c(cc2C1C)OCO3 (stereo not drawn) |
| 1.8 µM | CCCCNC(=O)N1N=C(c2ccc(N)cc2)c2cc3c(cc2C1C)OCO3 (stereo not drawn) |
| 23 µM | CNC(=O)N1N=C(c2ccc(N)cc2)c2cc3c(cc2C1C)OCO3 (stereo not drawn) |

| SMILES | IC50 |
| --- | --- |
| CNC(=O)N1N=C(c2ccc(N)cc2)c2cc3c(cc2CC1C)OCO3 (stereo not drawn) [GYKI-53655] | 1 µM |
| CC1=NN=C(c2ccc(N)cc2)c2cc3c(cc2C1)OCO3 [GYKI-52466] | 10 µM |
